Here are results for one molecule from US11274097B2, “2-(het)aryl-substituted condensed bicyclic heterocycle derivatives as pest control agents” (BAYER CROPSCIENCE AKTIENGESELLSCHAFT, priority 2014, dated 2022).

Common to all, as to type: in vivo
In one assay the test system is Ctenocephalides felis. The experiment in a line: Ctenocephalides felis in vitro contact test. The following applies: application rate 5 μg/cm^2; adult cat fleas; after 48 h. As to the method:
Ctenocephalides felis—In Vitro Contact Test
For the coating of the test tubes, 9 mg of active ingredient are first dissolved in 1 ml of acetone p.a. and then diluted to the desired concentration with acetone p.a. 250 μl of the solution are distributed homogeneously on the inner walls and base of a 25 ml test tube by turning and rocking on an orbital shaker (rocking rotation at 30 rpm for 2 h). With 900 ppm active ingredient solution and internal surface 44.7 cm^2, given homogeneous distribution, an area-based dose of 5 μg/cm^2 is achieved.
After the solvent has evaporated off, the tubes are populated with 5-10 adult cat fleas (Ctenocephalides felis), sealed with a perforated plastic lid and incubated in a horizontal position at room temperature and ambient humidity. After 48 h, efficacy is determined. To this end, the test tubes are stood upright and the fleas are knocked to the base of the tube. Fleas which remain motionless at the base or move in an uncoordinated manner are considered to be dead or moribund.
100% efficacy means that all the fleas were dead or moribund. 0% efficacy means that no fleas were harmed.

For a further assay, the system named is Musca domestica. The experiment in a line: Musca domestica test (MUSCDO). As to conditions: application rate 20 ppm; adult houseflies; after 2 days. As to the method:
Musca domestica Test (MUSCDO) Solvent: dimethyl sulphoxide To produce an appropriate active ingredient formulation, 10 mg of active ingredient are mixed with 0.5 ml of dimethyl sulphoxide, and the concentrate is diluted with water to the desired concentration. Vessels containing a sponge treated with sugar solution and the active ingredient formulation of the desired concentration are populated with 10 adult houseflies (Musca domestica). After 2 days, the kill in % is determined. 100% means that all of the flies have been killed; 0% means that none of the flies have been killed.

The next assay relates to Phaedon cochleariae. The experiment in a line: Phaedon cochleariae spray test (PHAECO). The following applies: application rate 500 g/ha; larvae; after 7 days. In short, it runs like this: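 Chinese cabbage leaf discs sprayed with compound in acetone/dimethylformamide with alkylaryl polyglycol ether emulsifier in water, dried, then infested with mustard beetle larvae. Efficacy scored after 7 days as % larvae killed (100% = all dead, 0% = none).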

The subject of another assay is Spodoptera frugiperda. Kind of assay: Spodoptera frugiperda spray test (SPODFR). As to conditions: application rate 500 g/ha; maize leaf discs; after 7 days. As to the method: Spodoptera frugiperda—Spray Test (SPODFR)
Solvent: 78.0 parts by weight of acetone • • 1.5 parts by weight of dimethylformamide
Emulsifier: alkylaryl polyglycol ether
To produce an appropriate active ingredient formulation, 1 part by weight of active ingredient is dissolved using the stated parts by weight of solvent and made up with water containing an emulsifier concentration of 1000 ppm until the desired concentration is attained. To produce further test concentrations, the preparation is diluted with emulsifier-containing water.
Leaf discs of maize (Zea mays) are sprayed with an active ingredient formulation of the desired concentration and, after drying, populated with caterpillars of the armyworm (Spodoptera frugiperda).
After 7 days, the efficacy in % is determined. 100% means that all the caterpillars have been killed; 0% means that no caterpillars have been killed.

As for `CCS(=O)(=O)c1cc(C(F)(F)F)cnc1-c1nc2cc(C(F)(F)F)ncc2n1C` [Example I-21], the efficacy with Ctenocephalides felis, in the assay on Phaedon cochleariae and with Spodoptera frugiperda was 100% in each case. Besides, the “efficacy (kill)” value with Musca domestica is 95%.
